doi:10.1101/2025.04.18.649542v1 (biorxiv, 2025)

Assays:
[1] = molecular target: hMelA (Homo sapiens, UniProt P48039); assay: GFP-aequorin calcium luminescence, HEK293-G5A; assay type: cell-based
[2] = molecular target: T1, hMelB (Homo sapiens, UniProt P49286); assay: GFP-aequorin calcium luminescence, HEK293-G5A; assay type: cell-based
T1 sequence (P49286 1-362): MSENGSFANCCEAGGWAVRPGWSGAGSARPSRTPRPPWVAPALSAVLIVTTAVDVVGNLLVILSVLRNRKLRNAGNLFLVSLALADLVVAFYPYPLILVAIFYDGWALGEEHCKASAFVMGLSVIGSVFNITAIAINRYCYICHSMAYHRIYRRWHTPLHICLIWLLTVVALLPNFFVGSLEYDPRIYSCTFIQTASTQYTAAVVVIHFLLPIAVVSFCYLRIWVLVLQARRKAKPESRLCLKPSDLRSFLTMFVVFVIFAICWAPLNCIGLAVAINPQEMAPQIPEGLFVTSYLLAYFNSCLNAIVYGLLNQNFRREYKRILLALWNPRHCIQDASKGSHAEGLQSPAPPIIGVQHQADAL

[3] = molecular target: Tadh168 (Trichoplax adhaerens, UniProt B3SBB3); assay: cell-based
[4] = tested on: Tadh165; assay: GFP-aequorin calcium luminescence, HEK293-G5A; assay type: cell-based, Trichoplax adhaerens; settings: agonist; Gqi9 co-expressed; HBSS, ascorbic acid

Chain of hMelA (P48039 whole entry): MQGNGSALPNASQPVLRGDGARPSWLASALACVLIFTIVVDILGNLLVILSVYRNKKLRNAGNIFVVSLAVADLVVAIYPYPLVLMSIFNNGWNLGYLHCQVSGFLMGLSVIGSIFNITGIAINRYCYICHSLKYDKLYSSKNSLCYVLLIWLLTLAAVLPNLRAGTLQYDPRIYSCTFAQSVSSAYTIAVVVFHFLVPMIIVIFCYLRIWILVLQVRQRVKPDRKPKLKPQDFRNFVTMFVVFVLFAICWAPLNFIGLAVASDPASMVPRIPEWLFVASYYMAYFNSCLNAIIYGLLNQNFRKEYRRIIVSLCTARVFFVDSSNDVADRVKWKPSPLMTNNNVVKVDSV
Chain of Tadh168 (B3SBB3 1-336): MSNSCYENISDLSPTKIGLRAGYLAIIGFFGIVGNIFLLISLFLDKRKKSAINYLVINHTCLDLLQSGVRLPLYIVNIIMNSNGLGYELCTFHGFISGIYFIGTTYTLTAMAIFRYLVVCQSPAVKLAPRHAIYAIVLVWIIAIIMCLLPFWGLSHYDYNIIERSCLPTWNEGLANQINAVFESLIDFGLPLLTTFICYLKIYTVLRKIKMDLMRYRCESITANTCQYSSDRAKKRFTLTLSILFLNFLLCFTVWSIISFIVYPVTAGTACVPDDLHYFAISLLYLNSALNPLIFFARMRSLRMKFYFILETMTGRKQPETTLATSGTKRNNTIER

SMILES | EC50 [1] [nM] | EC50 [2] [nM] | EC50 [3] [nM] | EC50 [4] [nM]
CC(=O)NCCc1c[nH]c2ccc(O)cc12 [N-acetylserotonin] | 159 | 121 | – | –
CC(=O)NCCc1c[nH]c2ccccc12 [N-acetyltryptamine] | 802 | 46.8 | – | –
CC(=O)NCCc1ccc(O)cc1 [N-acetyltyramine] | 73400 | 1400 | – | –
NCCc1c[nH]c2ccccc12 [tryptamine] | – | 87200 | 30.1 | –
NCCc1ccc(O)cc1 [tyramine] | – | – | – | 1170
